Here are results for three compounds from patent EP2674155B1, “Association of resveratrol and carboxymethylglucan” (priority 2012, dated 2013).

Series [1] is described as follows: Stability over time of resveratrol in aqueous solution (25°C, closed, protected from light), HPLC. It counts as physicochemical. The conditions noted are these: resveratrol alone 0.03 mg/ml. The method, then: (§1) The chromatographic method devised for determining resveratrol provides the use of a HPLC Waters system constituted by a pump, 600 model, by a Waters self-sampler mod. 717 and by a UV-Visible Photodiode array detector mod 2996. The system is handled by the Millenium^32 software. The used chromatographic column is a Symmetry C-18 with length of 15 cm, associated to a specific pre-column of same material with length of 1 cm. The elution is performed under isocratic conditions by using the following mixtures: • 1) 30% [Acetic acid 0.1 % in methanol] e 70% [Acetic acid 0.1 % in water] • 2) 80% [Acetic acid 10% in water] and 20% [Acetonitrile]. For the measurements 50 µL of sample are taken, diluted in 500µL of mobile phase and an aliquot of 50µL is injected in HPLC.
The examined concentration of the solution of resveratrol was 0.03 mg/ml, corresponding to the maximum quantity which can be solubilized in water of the original product. […] The two solutions were kept under the same conditions described above for the solution of resveratrol only and they were evaluated in different moments as from the time of the preparation thereof. […]

The nature of series [2]: Solubility of resveratrol in buffered aqueous solution in presence of CMG, determined by HPLC. Format: physicochemical. Here is the method:
as §1
The solutions of CMG and resveratrol have always been prepared in a buffered, isotonic, physiological pH-containing aqueous solution, constituted by: • dipotassium phosphate 0.74% • sodium chloride 0.42% • potassium phosphate 0.175%
All solutions were cold-prepared and without using any organic solvent.
In order to evaluate the solubility, with consequent effect on the bioavailability thereof, formulations were prepared containing resveratrol in association with CMG at increasing concentrations (from 0.5 mg/ml to 10 mg/ml) in a ratio 1:1, in an aqueous solution of the above-mentioned composition. […]

For the next series, the system named is VERO cellular line. Description: Cellular metabolic activity, MTT assay. It counts as cell-based. The note with it: VERO cells, resveratrol 0.5 mg/ml (2.2 mM), 6 hours after exposition, versus not treated cells (CTRL). Here is the method:
The cellular metabolic activity is evaluated on VERO cellular line, by means of MTT cellular proliferation assay (3-(4,5-dimethylthiazole-2-il)-2,5-diphenyltetrazolium bromide). The test with MTT is a simple method for determining the metabolic activation of the cells and it is based upon the action of the mitochondrial enzyme succinate dehydrogenase reducing the tetrazolium salts in crystals of a bluish product called formazan. Therefore the reaction can take place only in the metabolically active cells and the value of optical density (O.D.), obtained by means of spectrophotometric reading, can be correlated to the quantity of existing vital cells.
Upon considering the application of the association CMG-resveratrol for the formulation of pharmaceutical products, dietary supplies, medical devices, cosmetic products, functional pieces of food, veterinary products, with consequent interaction with the biological systems of men and animals in general, even the possible cytotoxycity was evaluated. In particular tests of cellular metabolic activity in presence of resveratrol and CMG on VERO cellular line were performed. […]
6 hours after exposition to these substances MTT colouring agent was added, then the formazan produced by the metabolically active cells was extracted with isopropanol and the optical density measured at 570 nm by subtracting the reference value at 690 nm. […]
For orientation: Formazan colour is commonly taken as a measure of viable cells.

Series [3] is classed as physicochemical. Here is the method: The solubility of triacetyl-resveratrol and of trimethylether of resveratrol in an aqueous solution (of the same composition described in example 1) in presence of CMG was evaluated. In particular, the solubility in aqueous phase of triacetyl-resveratrol and of trimethyl ether of resveratrol was evaluated at first and this value was considered unitary.

For the compound `Oc1ccc(C=Cc2cc(O)cc(O)c2)cc1` [resveratrol, 3,4',5-trihydroxystilbene], the “stability of resveratrol in buffer solution” value in series [1] (after 2 months) is given as “strong degradation”. In series [1] (after 7 months), the “stability of resveratrol in buffer solution” value is reported as “no more detected”. For the same compound, in series [2], the “concentration of CMG from which highly solubilizing action on resveratrol is confirmed” value was ≥ 250 µg/mL and the “solubilization higher than what reported in literature” value was “at least 100 times”. In addition, the “reduction in the cellular metabolic activity” value with VERO cellular line came out at 20%.

Take `CC(=O)Oc1ccc(/C=C/c2cc(OC(C)=O)cc(OC(C)=O)c2)cc1` [triacetylresveratrol, triacetyl-resveratrol]: in series [3], the “increase of solubility in presence of CMG, relative to solubility of the pure compound considered unitary” value was “more than one and a half time”.

In the case of `COc1ccc(/C=C/c2cc(OC)cc(OC)c2)cc1` [trimethylether of resveratrol], the “increase of solubility in presence of CMG, relative to solubility of the pure compound considered unitary” value in series [3] is listed as “three times”.
